Laboratory results from patent publication US20240294499A1, “TARGETED PROTEIN DEGRADATION USING BIFUNCTIONAL COMPOUNDS THAT BIND UBIQUITIN LIGASE AND TARGET MCL-1 PROTEIN” (Captor Therapeutics S.A., priority 2021, published 2024).

Key:
[1] = test system: iCELL Cardiomyocytes; experiment: Cardiac safety: caspase 3 and 7 activation (Caspase-Glo 3/7) in iCELL Cardiomyocytes; assay type: cell-based
From the text: The effect of various compounds of the invention and a reference compound AZD5991 on cardiac safety was investigated by the evaluation of caspase 3 and 7 activation using Caspase-Glo 3/7 Assay (Promega; G8092) in iCELL™ Cardiomyocytes from FUJIFILM Cellular Dynamics (Catalog number: 11713). In the Caspase-Glo® 3/7 Assay, the luminescence (measured as Relative Luciferase Units, RLU) is proportional to the amount of caspase activity present in each sample.
The assay is initiated by thawing and seeding iCell® Cardiomyocytes as specified in the User Guide. After 48 hours, the cells are washed to remove unattached cells and debris and immediately treated with compounds or DMSO diluted in the maintenance medium (FCDI; cat: M1003). Compound concentrations used in this assay: 7 points 1/3 dilution curve starting at 100 uM. After 24 hours of incubation with compounds, caspase activity is measured by the addition of the Caspase-Glo® 3/7 Reagent followed by the luminescence measurement.
The analysis of the results is performed by calculation of the fold change in caspase 3/7 activity at a given compound concentration. Fold change is calculated with the formula: […]
where: • RLU Xi is the Relative Luciferase Units of sample I; • RLU BG is the Background Relative Luciferase Units; • RLU C is the Relative Luciferase Units of Control (DMSO).
The experiments were performed in technical duplicates.

[2] = test system: MV-4-11 cells; experiment: Induction of apoptosis in cancer cells, flow cytometry (Annexin V/PI); assay type: cell-based; conditions: MV-4-11 cells, 1, 3, 10, 30 and 100 nM, 24 hours
Procedure: The effect of compound 204 of the invention MV-4-11 cells was investigated using the following protocol.
MV-4-11 cells were seeded on 24-well plates (1 ml) in growth medium containing 1% FBS. Immediately after seeding, compounds in appropriate concentrations were added directly to the cell culture medium. After 24 hours incubation, cells were washed twice with cold DPBS and the staining was performed using the FITC Annexin V Apoptosis Detection Kit I (BD Pharmingen; 556547). Samples were then analyzed by flow cytometry (LSR Fortessa X-20; BD Biosciences) within 1 hr. Results were evaluated using FlowJo (V10) software.
FIG. 6 presents the induction of apoptosis in MV-4-11 cells treated with 204 at 1, 3, 10, 30, and 100 nM concentration for 24 hours, as indicated.

Cc1nn(C)c(C)c1-c1c(Cl)ccc2c(CCCOc3cccc4ccccc34)c(C(=O)O)n(CCN3CCN(C(=O)COc4cccc5c4C(=O)N(C4CCC(=O)NC4=O)C5=O)CC3)c12 (stereo not drawn) [Compound 204, 6-chloro-1-(2-(4-(2-((2-(2,6-dioxopiperidin-3-yl)-1,3-dioxoisoindolin-4-yl)oxy)acetyl)piperazin-1-yl)ethyl)-3-(3-(naphthalen-1-yloxy)propyl)-7-(1,3,5-trimethyl-1H-pyrazol-4-yl)-1H-indole-2-carboxylic acid]
Fold change at 1.2 uM (caspase 3/7 activity in cardiomyocytes) ([1]; 1.2 uM, 24 hours incubation, vs DMSO): ≤1.5 ± 0.2 | activity in caspase activity assay in cardiomyocytes ([1]; as opposed to reference compound AZD5991): little to no activity | population of late apoptotic/cell death (Annexin+/PI+) cells [2]: concentration dependent increase
